We go through nine compounds from patent publication US5853748A, “Pharmaceutical compositions” (priority 1994, dated 1998).

Read-outs that look alike come from different tables or passages of the source.

For data set [1] the following is noted: for pH: MES. The source says:
(§1) The amount of agent necessary to adjust the pH to within the range contemplated is difficult to determine directly because the intestinal pH can vary between 5 to 7, and its aqueous content can vary, as can its intrinsic buffering capacity, which acts to maintain a low pH. Consequently considerations aimed at determining the appropriate quantity of agent controlling pH need to take into account a "worst-case" scenario. An indication may be obtained by observing the pH achieved upon adding a potential pH-adjusting agent to a 50 mM solution of MES (morpholino ethane sulphonic acid) adjusted to pH 6.0.

The conditions of data set [2]: for pH: water.
Description: as §1
A 0.1M solution of sodium bicarbonate in distilled water was prepared (buffer solution). Similar 0.1M solutions of sodium acetate, sodium borate and sodium carbonate in distilled water were also prepared. These are also referred to in the examples as buffers.

Data set [3] is described as follows: In vivo efficacy study, salmon calcitonin, intrajejunal, pigs (plasma calcium). Particulars: […] iu sCT intrajejunal in 2 ml, with 25 or 50 mg sodium chenodeoxy cholate, pH 7.5 or 6.5. More on the design: species or system Pigs (large white×large white/landrace). As for the experimental part: Dosing of salmon calcitonin (sCT) was administered by instillation via the indwelling cannula into the jejunum, followed by flushing with warm sterile water. 8 ml blood samples were removed at various times before and after dosing, and divided into two portions. One portion was allowed to clot at room temperature, and the serum removed and stored at -20° C. until ready for use. The other portion was transferred to heparinised tubes to which 4000 kiu aprotinin was added, and the plasma decanted after centrifugation and stored at -20° C. Serum calcium levels were measured colorimetrically after complexation with the calcium-sensitive chelating agent arsenazo III.
Nine animals were used in the study, and formulations were administered on three separate days, each separated by at least one day, on a random three-way crossover basis, so that all pigs received all three treatments.

The test system of data set [4] is Caco-2 cells. The data set is described as follows: in vitro. How it is done:
(§2) Test solutions were prepared containing various concentrations of a bile salt in either HBSS or in one of the 0.1M buffer solution. The following bile salts were tested:
(§3) A MTT stock solution was prepared at a concentration of 5 mg/ml in distilled water, which was then diluted 1:10 with TCM before use.
(§4) Test plates were set up by aliquotting 200 μl of a Caco-2 cell suspension containing 1×10^5 cells/ml into wells of a 96-well microtitre plate. The outermost wells on each plate were left blank, and filled with 200 μl saline, to counteract the effects of evaporation. The cells were is incubated in high glucose DMEM tissue culture medium (TCM) at 37° C., 5% CO2 in air, for 8 days, with feeding when necessary.
(§5) MTT is a tetrazolium salt which is converted by mitochondrial dehydrogenases in viable cells to form an insoluble purple crystal. Dead cells would not effect this conversion. Crystal formation can be quantified colorimetrically and used to asses mitochondrial activity and therefore cell viability. The preparation of MTT stock solution, test solutions and buffer solution is described above.
(§6) In this procedure, cells are first incubated with test materials and then incubated with MTT and measurements are made to determine the extent to which incubation with test materials has altered the mitochondrial activity of the cells. A two hour exposure period is used together with a three hour recovery period during which time staining is conducted.
(§7) TCM was removed from each well and replaced with 150 Al of the appropriate buffer.
(§8) Buffer was removed from wells in column 2 and replaced with 150 μl of test solutions at the highest concentration.
(§9) 150 μl of test solutions was added to each of wells in column 3, mixed gently by aspirating repeatedly, and 150 μl transferred to wells in column 4. This process was repeated down the plate to obtain two-fold serial dilutions of test material along each row. […]
(§10) Absorbances were measured on a plate reader as the difference between 550 and 650 nm, and readings compared with buffer controls to assess change in mitochondrial activity. […]

In data set [5] the test system is Caco-2 cells. The data set is described as follows: in vitro. How it is done: (§11) A neutral red stock solution was prepared at concentration of 0.5 mg/ml in DMEM (Dulbecco's Modified Eagle Medium) (pH 4.5) which was then diluted 1:10 with TCM (Tissue Culture Medium) or Hanks Balanced Salt Solution (HBSS) before use.
as §2
(§12) Test plates were set up by aliquotting 200 μl of a Caco-2 cell suspension containing 1×10^5 cells/ml into each well of a 96-well microtitre plate. The outermost wells were filled with 200 μl saline alone, to counteract the effects of evaporation. The cells were incubated in high glucose Dulbecco's modified eagles medium (DMEM) tissue culture medium (TCM) at […], 5% CO2 in air, for 8 days, with feeding where necessary. The cells were then used for performance of either an initial insult or a recovery study.
(§13) B. Recovery from Toxic Insult
(§14) Neutral red stain is actively taken up by viable cells and non-viable cells will not stain. Cells with increased cell membrane permeability will have a reduced stain content. […] A 2-hour exposure period is used together with a 3-hour recovery period in optimal growth material during which stain is taken up. The following protocol was followed:
(§15) TCM was removed from each well and replaced with 150 μl of the appropriate buffer.
as §8
(§16) 150 μof test solutions was added to each of wells in column 3, mixed gently by aspirating repeatedly, and 150 μl transferred to wells in column 4. This process was repeated down the plate to obtain two-fold serial dilutions of test material along each row. One row on each plate was allocated to HBSS as a control, and one row for a buffer control if necessary. The cells were incubated for 2 hours at 37° C. in CO2.
(§17) The supernatant liquid was then removed from cell monolayers in each well and replaced with 200 μl of stain.
(§18) The plates were incubated for 3 hours at 37° C., 5% CO2. […]
The source holds these as a separate data set.

Data set [6] is described as follows: in vitro. Particulars: human, hbss. As for the experimental part:
as §2, §3, §4, §5, §6, §7, §8, §9, §10

Data set [7] in a line: in vitro. Particulars: human, hbss. As for the experimental part:
as §11, §2, §12, §13, §14, §15, §8, §16, §17, §18
This is another data set of the same source.

The nature of data set [8]: in vitro. Particulars: human, hbss. How it is done: as §11, §2
Test plates were set up by aliquotting 200 μl of a Caco-2 cell suspension containing 1×10^5 cells/ml into each well of a 96-well microtitre plate. The outermost wells were filled with 200 μl saline alone, to counteract the effects of evaporation. The cells were incubated in high glucose Dulbecco's modified eagles medium (DMEM) tissue culture medium (TCM) at […], 5% CO2 in air, for 8 days, with feeding where necessary. The cells were then used for performance of either an initial insult or a recovery study. […]
Neutral red stain is actively taken up by viable cells. Cells with more permeable membranes will lose stain into the bathing medium and thus cell membrane permeability can be directly assessed after exposure to the test material by quantifying the stain remaining in the cell. […]
In order to quantify the amount of stain remaining in the cells, absorbances were measured on a plate reader at 550 nm, and readings compared with buffer controls to assess leakage of the stain from the cells. […]
The source holds these as a separate data set.

The conditions of data set [9]: sodium cholate (Kojima et al); cited from earlier work.
For data set [10] the following is noted: cited from earlier work.
For data set [11] the following is noted: at the pH values contemplated (7.5 to 9); cited from earlier work.

In the case of `O=C(O)O` [Bicarbonate, sodium bicarbonate], the pH in [1] (0.002 M) is given as 6.42; in data set [1] (0.004 M), 6.58; in data set [1] (0.008 M) it was 6.86; in [1] (0.016 M), 7.14; in data set [1] (0.031 M) it was 7.40; in [1] (0.062 M) it was 7.68. For the same compound, the pH was determined as 8.05 in [1] (0.500 M); 7.96 in [1] (1.000 M); 8.86 in data set [2] (0.002 M); 8.67 in data set [2] (0.004 M); 8.63 in data set [2] (0.008 M); 8.57 in [2] (0.016 M). The pH in [2] (0.031 M) is 8.55; in [2] (0.062 M), 8.49; in data set [2] (0.500 M) it was 8.16; in data set [2] (1.000 M), 8.02. In addition, the “pH in the gut” value in data set [1] (about 0.045M (about 40 mg sodium bicarbonate in 10 ml)) was “about 7.5”. Moreover, the “pH of 0.1M solution” value in data set [2] (0.1M, confirmed at the end of each of the experiments) was approximately 8.0. Also, the “pH of saturated solution” value in data set [2] (saturated (<2M) in water) amounted to 8.01.
With salmon calcitonin [sCT], the “efficacy of bile salts in enhancing uptake of calcitonin (plasma calcium concentration with time, FIG. 6)” value in [3] was “dependent on the concentration of bile salt present, and the pH at which it is administered”.
As to `C[C@H](CCC(=O)O)[C@H]1CC[C@H]2[C@@H]3[C@H](O)C[C@@H]4C[C@H](O)CC[C@]4(C)[C@H]3CC[C@]12C` [Chenodeoxycholate, sodium chenodeoxycholate], the “percentage reduction in mitochondrial activity (FIG. 5)” value in the data set on Caco-2 cells [4] is “a marked reduction in toxicity is achieved under conditions of elevated pH”. In the data set on Caco-2 cells [5], the “percentage release of stain (FIG. 4)” value was “much less stain is released from cells which have been incubated at pH above 7.5”.
On to `C[C@H](CCC(=O)NCC(=O)O)[C@H]1CC[C@H]2[C@@H]3CC[C@@H]4C[C@H](O)CC[C@]4(C)[C@H]3C[C@H](O)[C@]12C` [Glycodeoxycholate, sodium glycodeoxycholate], for which the MNTC at 2 h in the data set “in vitro [6]”, in “in vitro [7]” and in “in vitro [8]” was 313 µg/mL throughout.
In the case of `C[C@H](CCC(=O)O)[C@H]1CC[C@H]2[C@@H]3[C@H](O)C[C@@H]4C[C@H](O)CC[C@]4(C)[C@H]3C[C@H](O)[C@]12C` [Cholate, sodium cholate], the “release of cell membrane components” value in data set [9] is “accelerated”. Also, the “absorption of various substances” value in [10] (sodium cholate (Kojima et al)) was “capable of increasing the absorption of various substances”.
Turning to `C[C@H](CCC(=O)NCCS(=O)(=O)O)[C@H]1CC[C@H]2[C@@H]3CC[C@@H]4C[C@H](O)CC[C@]4(C)[C@H]3C[C@H](O)[C@]12C` [Taurodeoxycholate, sodium taurodeoxycholate], the MNTC at 2 h in the data set “in vitro [6]”, in the data set “in vitro [7]” and in “in vitro [8]” was 313 µg/mL in each case.
As to somatostatin, the bioavailability of somatostatin result in [10] (with a cholanic acid derivative such as chenodeoxycholic acid or ursodeoxycholic acid (GB-A-2244918)) is “can be improved”.
As to insulin, the solubility entry in data set [11] is given as “poorly soluble”.
On to `C[C@H](CCC(=O)NCC(=O)O)[C@H]1CC[C@H]2[C@@H]3[C@H](O)C[C@@H]4C[C@H](O)CC[C@]4(C)[C@H]3C[C@H](O)[C@]12C` [Glycocholate, sodium glycocholate], for which the “bioavailability of various substances” value in data set [10] (in combination with taurocholate or glycocholate (Kakemi et al)) is “could be increased”.
